In general, MIC refers to the lowest concentration that inhibits growth of the organism. By MIC50 is commonly meant an inhibitory concentration at the 50% level, which refers to growth in some studies and to a panel of isolates in others.

The test system of series [1] is Lipid bilayer. The series can be described thus: Induction of pore formation in negatively charged DOPE/DOPG large unilamellar vesicles assessed as calcein release at 0.39 to 50 uM measured for 60 mins by fluorescence based assay.
A short description of series [2]: Cytotoxicity against HDF cells assessed as minimum cytotoxic concentration incubated for 24 hrs by Alexa Fluor […] phalloidin-FITC/Hoescht dye staining based fluorescence microscopic analysis. The format is cell-based. The settings on record: human, HDF cells (NHDF, human dermal fibroblasts).
For series [3], the system named is Lipid bilayer. The series can be described thus: Binding affinity to zwitterionic DOPC/cholesterol large unilamellar vesicles assessed as transformation of peptide secondary structure to alpha-helical conformation by CD spectropolarimetry.
Series [4] relates to Lipid bilayer. The series can be described thus: Induction of pore formation in zwitterionic DOPC/cholesterol large unilamellar vesicles assessed as calcein release at 0.39 to 50 uM measured for 60 mins by fluorescence based assay.
For series [5], the system named is Candida albicans. The series can be described thus: Antifungal activity against Candida albicans assessed as reduction in fungal growth incubated for 24 hrs by broth microdilution method. The series is classed as functional. On the technique in general: Broth dilution looks for growth in wells or tubes with falling amounts of substance.
For series [6], the system named is Staphylococcus aureus. The series can be described thus: Antibacterial activity against Staphylococcus aureus assessed as reduction in bacterial growth incubated for 24 hrs by broth microdilution method. The series is classed as functional.
For series [7], the system named is Lipid bilayer. The series can be described thus: Induction of pore formation in negatively charged DOPE/DOPG large unilamellar vesicles assessed as ratio of peptide to lipid molar ratio that induces 50% calcein leakage measured for 60 mins by calcein dequenching based fluorescence based assay.
For series [8], the system named is NHDF. Kind of series: Cytotoxicity against HDF cells at 31.25 ug/ml incubated for 24 hrs by Alexa Fluor […] phalloidin-FITC/Hoescht dye staining based fluorescence microscopic analysis. The format is cell-based. The settings on record: human.
Series [9] is described as follows: Cytotoxicity against HDF cells assessed as minimum cytotoxic concentration incubated for 24 hrs by MTS assay. The series is classed as cell-based. The settings on record: human, HDF cells (NHDF, human dermal fibroblasts). On the technique in general: Tetrazolium assays rely on reduction of a dye to a coloured formazan, in cell work by metabolically active cells.

The test system of series [10] is Pseudomonas aeruginosa. Kind of series: Antibacterial activity against Pseudomonas aeruginosa assessed as reduction in bacterial growth incubated for 24 hrs by broth microdilution method. The format is functional.
Series [11] relates to NHDF. Kind of series: Cytotoxicity against HDF cells assessed as reduction in metabolic activity at 32 ug/ml incubated for 24 hrs by MTS assay. The settings on record: human. The series is classed as ADME, cell-based.
In series [12] the test system is Staphylococcus aureus. The series can be described thus: Antibacterial activity against methicillin-resistance Staphylococcus aureus assessed as reduction in bacterial growth incubated for 24 hrs by broth microdilution method. The series is classed as functional.
The test system of series [13] is Staphylococcus aureus. Kind of series: Antibacterial activity against methicillin-sensitive Staphylococcus aureus assessed as reduction in bacterial growth incubated for 24 hrs by broth microdilution method. The series is classed as functional.
For series [14], the system named is Enterococcus. Kind of series: Antibacterial activity against vancomycin-resistant Enterococcus assessed as reduction in bacterial growth incubated for 24 hrs by broth microdilution method. The series is classed as functional.
Series [15] in a line: Cytotoxicity against HDF cells assessed as cell viability at 500 ug/ml incubated for 24 hrs by MTS assay relative to control. The series is classed as cell-based. The settings on record: human, HDF cells (NHDF, human dermal fibroblasts); read-out: Activity.
Series [16] deals with Enterobacteriaceae. The series can be described thus: Antibacterial activity against Carbapenem-Resistant Enterobacteriaceae assessed as reduction in bacterial growth incubated for 24 hrs by broth microdilution method. The series is classed as functional.
The test system of series [17] is Acinetobacter baumannii. The series can be described thus: Antibacterial activity against multidrug-resistant Acinetobacter baumannii assessed as reduction in bacterial growth incubated for 24 hrs by broth microdilution method. The series is classed as functional.
Series [18] concerns NHDF. Kind of series: Cytotoxicity against HDF cells assessed as truncation and reduction in cytoskeleton at 500 ug/ml incubated for 24 hrs by Alexa Fluor […] phalloidin-FITC/Hoescht dye staining based fluorescence microscopic analysis. The series is classed as cell-based. The settings on record: human.

Converted amounts (≈) assume the structure as drawn. The source made the active and inactive calls. No cut-off for these calls is given here. A value given as a limit tells only on which side of the number the result lay.

As to `CC[C@H](C)[C@H](NC(=O)CN)C(=O)NCC(=O)N[C@@H](C)C(=O)N[C@H](C(=O)N[C@@H](CC(C)C)C(=O)N[C@@H](CCCCN)C(=O)N[C@H](C(=O)N[C@@H](CC(C)C)C(=O)N[C@H](C(=O)N[C@H](C(=O)NCC(=O)N[C@@H](CC(C)C)C(=O)N1CCC[C@H]1C(=O)N[C@@H](C)C(=O)N[C@@H](CC(C)C)C(=O)N[C@H](C(=O)N[C@@H](CO)C(=O)N[C@@H](Cc1c[nH]c2ccccc12)C(=O)N[C@H](C(=O)N[C@@H](CCCCN)C(=O)N[C@@H](CCCNC(=N)N)C(=O)NCCC[C@@H](CN)C(=O)N[C@@H](CCCNC(=N)N)C(=O)N[C@@H](CCC(N)=O)C(=O)N[C@@H](CCC(N)=O)C(N)=O)[C@@H](C)CC)[C@@H](C)CC)[C@@H](C)O)[C@@H](C)O)C(C)C)C(C)C`, the result in series [1] and in series [4] was Active. For the same compound, the MCC at 24 h in [2] and in [9] was > 16 µg/mL each time. Besides, in [3], the result was inactive. The values for the MIC in series [5], in [6] and in series [10] were 4 to 8 µg/mL (≈ 1.41 to 2.81 µM), 4 to 8 µg/mL (≈ 1.41 to 2.81 µM) and 4 to 16 µg/mL (≈ 1.41 to 5.62 µM), respectively. In series [7], the Ratio is 0.15. Besides, the Activity result in series [8] and in [11] was “Toxic” each time.

As to `CC[C@H](C)[C@H](NC(=O)CN)C(=O)NCC(=O)N[C@@H](C)C(=O)N[C@H](C(=O)N[C@@H](CC(C)C)C(=O)N[C@@H](CCCCN)C(=O)N[C@H](C(=O)N[C@@H](CC(C)C)C(=O)N[C@H](C(=O)N[C@H](C(=O)NCC(=O)N[C@@H](CC(C)C)C(=O)N1CCC[C@H]1C(=O)N[C@@H](C)C(=O)N[C@@H](CC(C)C)C(=O)N[C@H](C(=O)N[C@@H](CO)C(=O)N[C@@H](Cc1c[nH]c2ccccc12)C(=O)N[C@H](C(=O)NCCC[C@@H](CN)C(=O)N[C@@H](CCCNC(=N)N)C(=O)N[C@@H](CCCCN)C(=O)N[C@@H](CCCNC(=N)N)C(=O)N[C@@H](CCC(N)=O)C(=O)N[C@@H](CCC(N)=O)C(N)=O)[C@@H](C)CC)[C@@H](C)CC)[C@@H](C)O)[C@@H](C)O)C(C)C)C(C)C`, the result in series [1] and in series [4] was Active. In addition, the MCC at 24 h in [2] and in series [9] was > 16 µg/mL throughout. Besides, the result in series [3] was inactive. In addition, the MIC in series [5] is 4 to 8 µg/mL (≈ 1.41 to 2.81 µM); in series [6], 4 to 8 µg/mL (≈ 1.41 to 2.81 µM); in series [10], 4 to 16 µg/mL (≈ 1.41 to 5.62 µM). The Ratio in series [7] is 0.24. The Activity result in series [8] and in [11] was “Toxic” each time.

As to `CC[C@H](C)[C@H](NC(=O)CN)C(=O)NCC(=O)N[C@@H](C)C(=O)N[C@H](C(=O)N[C@@H](CC(C)C)C(=O)NCCC[C@@H](CN)C(=O)N[C@H](C(=O)N[C@@H](CC(C)C)C(=O)N[C@H](C(=O)N[C@H](C(=O)NCC(=O)N[C@@H](CC(C)C)C(=O)N1CCC[C@H]1C(=O)N[C@@H](C)C(=O)N[C@@H](CC(C)C)C(=O)N[C@H](C(=O)N[C@@H](CO)C(=O)N[C@@H](Cc1c[nH]c2ccccc12)C(=O)N[C@H](C(=O)NCCC[C@@H](CN)C(=O)N[C@@H](CCCNC(=N)N)C(=O)NCCC[C@@H](CN)C(=O)N[C@@H](CCCNC(=N)N)C(=O)N[C@@H](CCC(N)=O)C(=O)N[C@@H](CCC(N)=O)C(N)=O)[C@@H](C)CC)[C@@H](C)CC)[C@@H](C)O)[C@@H](C)O)C(C)C)C(C)C`, the MIC50 in series [12] is 64 µg/mL (≈ 22.5 µM); in [13] it was 64 µg/mL (≈ 22.5 µM); in series [14], 8 µg/mL (≈ 2.81 µM); in series [5], 4 µg/mL (≈ 1.41 µM); in [16], 8 µg/mL (≈ 2.81 µM); in series [10], 32 µg/mL (≈ 11.2 µM). Moreover, the MIC50 in series [17] came out at 8 µg/mL (≈ 2.81 µM). Further, the MIC in [13] fell in the range of 16 to 128 µg/mL (≈ 5.62 to 45 µM); in series [14], 4 to 16 µg/mL (≈ 1.41 to 5.62 µM); in series [5], 4 to 8 µg/mL (≈ 1.41 to 2.81 µM); in series [16], 4 to 64 µg/mL (≈ 1.41 to 22.5 µM); in series [10], 16 to 64 µg/mL (≈ 5.62 to 22.5 µM); in [17], 4 to 8 µg/mL (≈ 1.41 to 2.81 µM). Also, in series [15], the viability at 24 h, 500 ug/ml worked out at 102%. The Activity entry in series [18] is “Toxic”.

The values above are taken from ChEMBL document CHEMBL4402583, “Rational Substitution of ε-Lysine for α-Lysine Enhances the Cell and Membrane Selectivity of Pore-Forming Melittin” (J Med Chem, 2020).
